Measurements published in patent US11014915B2, “Selective estrogen receptor degrader” (SUN PHARMA ADVANCED RESEARCH COMPANY LIMITED, priority 2019, dated 2021).
Residue numbers refer to the chain shown, from its start.

How the values were obtained:
Type in all cases: cell-based
[1] = biological target: T1, ER-α in MCF-7 cells harboring ER wild type (Homo sapiens, UniProt P03372); assay: ER-α degradation (SERD) assay, MCF-7 wild type; settings: for % of ER-α remaining at 1 nM / DC50: MCF-7 Wt, 4 days; for % of ER-α remaining at 1 nM: western blot, vehicle control as 100%; for DC50: read-out: ER-α degradation assay Wt IC50
T1 construct: evaluated in MCF-7 cells harboring ER wild type; endogenous in cells; host or cells: MCF-7
T1 sequence (P03372 1-595): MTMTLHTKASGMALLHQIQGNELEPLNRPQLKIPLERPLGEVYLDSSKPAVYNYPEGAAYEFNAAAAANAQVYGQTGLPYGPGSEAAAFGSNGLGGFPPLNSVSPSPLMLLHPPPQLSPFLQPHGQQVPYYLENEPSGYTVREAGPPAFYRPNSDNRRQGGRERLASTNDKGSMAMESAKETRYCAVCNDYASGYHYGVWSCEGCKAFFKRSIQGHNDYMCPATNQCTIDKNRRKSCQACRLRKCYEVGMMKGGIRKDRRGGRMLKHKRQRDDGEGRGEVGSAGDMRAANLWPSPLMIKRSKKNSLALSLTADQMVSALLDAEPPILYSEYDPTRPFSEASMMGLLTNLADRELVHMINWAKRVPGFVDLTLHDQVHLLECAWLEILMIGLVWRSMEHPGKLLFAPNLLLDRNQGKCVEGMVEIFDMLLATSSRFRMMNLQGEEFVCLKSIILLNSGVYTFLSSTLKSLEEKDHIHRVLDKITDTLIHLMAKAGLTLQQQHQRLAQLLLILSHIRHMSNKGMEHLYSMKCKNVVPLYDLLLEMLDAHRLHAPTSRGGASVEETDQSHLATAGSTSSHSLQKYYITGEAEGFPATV
Procedure: (§1) Selective Estrogen Receptor Degradation (SERD) Assay:
(§2) The SERD activity for the test compounds was evaluated in MCF-7 cells harboring ER wild type, and MCF-7 cells harboring mutant ER (WT/D538G and WT/Y537S). Briefly, cells were plated in phenol red free RPMI1640 medium supplemented with 5% charcoal stripped fetal bovine serum. The seeding density was 40000 cells/well for MCF-7 WT and MCF-7 D538G and 50000 cells/well MCF-7 Y537S in a 48-well plate. Following overnight incubation, the cells were treated with varying concentrations of test compounds (final concentration: 1000 nM to 0.01 nM, 0.1% DMSO) for 4 days. The cells were lysed using PBS supplemented with 1 mM EDTA, 0.5% Triton X-100, 5 mM NaF, 6 M urea, and 1× Protease inhibitor cocktail. The lysate was analyzed for ER alpha protein using western blot. For the western blot, the cell lysate (12.5-40 μg total protein) was resolved on a 10% SDS PAGE and transferred onto a PVDF membrane. The blots were blocked using 5% skim milk powder in 0.1% PBS-T for 1 hour at room temperature, followed by co-incubation with rabbit anti-human β-actin antibody and rabbit anti-human ERα antibody for 2 hours at room temperature. The blots were subsequently probed with anti-rabbit IgG-HRP conjugate as secondary antibody for 1 hour at room temperature. The blots were developed by using West Pico Super Signal Chemiluminescence substrate and the bands were processed for densitometry analysis using Image Lab software (BioRad version 6.0.0). ERα band intensity was normalized to that housekeeping protein for respective samples. The % ER remaining was calculated by normalizing against the vehicle control (as 100%).

[2] = biological target: T2, ER-α in MCF-7 cells harboring mutant ER (WT/Y537S) (Homo sapiens, UniProt P03372, Y537S); assay: ER-α degradation (SERD) assay, MCF-7 Y537S; settings: for DC50: MCF-7 Y537S, 4 days, read-out: ER-α degradation assay Y537S IC50
T2 construct: MCF-7 cells harboring mutant ER (WT/D538G and WT/Y537S); endogenous in cells; host or cells: MCF-7 Y537S (WT/Y537S)
T2 sequence (P03372 1-595 Y537S): T1 sequence (P03372 1-595) with Y537S
Procedure: as §1, §2

[3] = system: MCF-7 cells harboring mutant ER (WT/Y537S); assay: MCF-7 cell growth inhibition assay, Y537S; settings: Homo sapiens, MCF7, 168 h; MCF-7 Y537S, seven-day incubation
Procedure: MCF-7 Cell Growth Inhibition Assay:
The anti-proliferative activity of the test compounds were evaluated in a growth inhibition assay. Briefly, MCF-7 cells harboring ER wild type (Wt), and MCF-7 cells harboring mutant ER (WT/D538G and WT/Y537S) were seeded at a density of 1000 cells/well in 96-well plate in phenol red free RPMI1640 medium supplemented with 10% charcoal stripped fetal bovine serum. The cells were incubated overnight at 37° C. and 5% CO2 followed by the addition of varying concentrations of the test compounds in DMSO. Final concentration of DMSO in the well was 0.5%. Following a seven-day incubation of cells with the test compounds, cell viability was assessed using a Prestoblue™ reagent. The percent inhibition of cell proliferation was calculated by normalizing the cell viability using a vehicle control as 0% inhibition of proliferation.

For `CC1=C(c2cc(F)cc(F)c2)[C@H](c2ccc(/C=C/CN3CC(CF)C3)cc2)Oc2cc(O)ccc21` [Formula Ia, (2S)-3-(3,5-difluorophenyl)-2-[4-[(E)-3-[3-(fluoromethyl)azetidin-1-yl]prop-1-enyl]phenyl]-4-methyl-2H-chromen-7-ol], the “% of ER-α remaining at 1 nM” value [1] was 16.3%, the DC50 [1] was 0.3 nM and the “Potency of Formula Ia relative to Formula Ib in ER-α degradation” value ([1]; wild type) was “about 34 times”. The DC50 [2] was 19.6 nM and the IC50 [3] was 6 nM.
For `CC1=C(c2cc(F)cc(F)c2)[C@@H](c2ccc(/C=C/CN3CC(CF)C3)cc2)Oc2cc(O)ccc21` [Formula Ib, (2R)-3-(3,5-difluorophenyl)-2-[4-[(E)-3-[3-(fluoromethyl)azetidin-1-yl]prop-1-enyl]phenyl]-4-methyl-2H-chromen-7-ol], the “% of ER-α remaining at 1 nM” value [1] was 81.5%, the DC50 [1] was 10.2 nM and the DC50 [2] was greater than 1000 nM. The “ER-α degradation in mutated cell line (in words)” value ([2]; Y537S) was “no ER-α degradation” and the IC50 [3] was 1000 nM.
